According to patent US10588316B2 (priority 2015, dated 2020):

What was measured:
Fusarium graminearum = experiment: microbe, parasite or virus in culture; type: cell-based; settings: F.g sensitive strains
Fusarium asiaticum = experiment: microbe, parasite or virus in culture; type: cell-based; settings: F.a sensitive strains

SMILES: CCOC(=O)C(C#N)=C(N)c1ccccc1 [phenamacril]
- Median Effective Concentration (EC50) for Growth Inhibition (Fusarium graminearum): 0.165 µg/mL
- Median Effective Concentration (EC50) for Growth Inhibition (Fusarium asiaticum): 0.165 µg/mL
